Data taken from EP0425840A2, “Use of methenamine in the treatment of viral diseases and malign neoplasies” (Jaeger, Karl-Heinz, Dr. med., priority 1989, dated 1991).
Like-named read-outs stand apart in the source and are kept apart here.

How the values were obtained:
[1] = tested on: L 5178 Y Maus-Lyphom Zellen; assay: Nucleus size after cell lysis and propidium iodide staining (impulse cytophotometer); type: cell-based
Text: (§1) HMT wurde zu den Kulturen in verschiedenen Konzentrationen während einer Zeitspanne von 24 Std. zugegeben. Die Populationen und das Zellvolumen wurden mit einem Zytokombgerät (System Michaelis, Mainz) entsprechend dem Coulter Counter-Prinzip bestimmt. Nach der Zellolyse mit 35 mmol/l Natriumzitrat und 0,5% Triton X 100 (Herstellerin Sigma Chemie, München), RNAse Behandlung und […] mit Propidiumjodid wurde die Kerngröße mit Hilfe eines Impulszytofotometers (FACS analizer) Firma Becton and Dickinson) gemessen.
Die Zellkulturen wurden wie unter Beispiel 1 beschrieben behandelt. Bei der Bewertung der Nucleusgröße wurde als Kontrolle die Verteilung der Kerngröße bei unbehandelten Zellen zugrunde gelegt.

[2] = tested on: L 5178 Y Maus-Lyphom Zellen; assay: Change of cell volume in L 5178 Y cell culture (Coulter counter principle); type: cell-based
Text: as §1, with “Die L 5178 Y Maus-Lyphom Zellen wurden in einem MEM-Spinner Medium mit 10 mmol/l HEPES Puffer, 10% fötalem Kalbserum und 100.000 Einheiten/l Penicillin/Steptomycin (Herstellerin Biocrom, Berlin) kultiviert. Bei Kultivierungsstart lagen 100.000 Zellen/ml Kulturmedium vor, wobei sich 60% der Zellen in der S-Phase befanden. HMT” for “HMT”

[3] = tested on: L 5178 Y Maus-Lyphom Zellen; assay: Inhibition of cell growth in L 5178 Y cell culture (Coulter counter principle); type: cell-based
Text: as §1, with “Die L 5178 Y Maus-Lyphom Zellen wurden in einem MEM-Spinner Medium mit 10 mmol/l HEPES Puffer, 10% fötalem Kalbserum und 100.000 Einheiten/l Penicillin/Steptomycin (Herstellerin Biocrom, Berlin) kultiviert. Bei Kultivierungsstart lagen 100.000 Zellen/ml Kulturmedium vor, wobei sich 60% der Zellen in der S-Phase befanden. HMT” for “HMT”

[4] = cited from earlier work
reversen Transkriptase = assay: Activity of reverse transcriptase in the cell nucleus; type: cell-based; conditions: no method or concentration given
DNA-Polymerasen = assay: Activity of DNA polymerases in the cell nucleus; type: cell-based; conditions: no method or concentration given

## N.N.[Cl][Pt][Cl] [Cisplatin]
[1]; Cisplatin 0,5 x 10⁻⁵ g/ml Kulturvolumen
  Anzahl der Kerne mit reduzierter Nucleusgröße (%): 43,51±5,62%
[1]; Cisplatin 0,5 x 10⁻⁶ g/ml Kulturvolumen
  Anzahl der Kerne mit reduzierter Nucleusgröße (%): 6,97±2,81%
[1]; Cisplatin 1,0 x 10⁻⁶ g/ml Kulturvolumen
  Anzahl der Kerne mit reduzierter Nucleusgröße (%): 9,95±3,13%
[1]; Cisplatin 1,0 x 10⁻⁷ g/ml Kulturvolumen
  Anzahl der Kerne mit reduzierter Nucleusgröße (%): 4,07±2,24%
[1]; Cisplatin 2,0 x 10⁻⁶ g/ml Kulturvolumen
  Anzahl der Kerne mit reduzierter Nucleusgröße (%): 18,62±4,08%

## C1N2CN3CN1CN(C2)C3 [HMT, Methenamine]
[2]; 0,1 mg HMT/ml Kulturvolumen, Zellfragmente, Mittelwert
  Zellvolumen (µm³): 339,06 µm³
[2]; 0,2 mg HMT/ml Kulturvolumen, Zellfragmente, Mittelwert
  Zellvolumen (µm³): 323,75 µm³
[2]; 1 x 10⁻² mg HMT/ml Kulturvolumen, Kontrolle 1470,66±390,71
  Zellvolumen (µm³): 1540,82±401,32 µm³
[2]; 1 x 10⁻³ mg HMT/ml Kulturvolumen, Kontrolle 1470,66±390,71
  Zellvolumen (µm³): 1422,27±398,09 µm³
[2]; 2 x 10⁻² mg HMT/ml Kulturvolumen, Kontrolle 1470,66±390,71
  Zellvolumen (µm³): 1718,16±487,10 µm³
[2]; 2 x 10⁻³ mg HMT/ml Kulturvolumen, Kontrolle 1470,66±390,71
  Zellvolumen (µm³): 1479,35±387,79 µm³
[2]; 2 x 10⁻¹² mg HMT/ml Kulturvolumen, Kontrolle 1470,66±390,71
  Zellvolumen (µm³): 1411,23±395,92 µm³
[2]; 2 x 10⁻¹¹ mg HMT/ml Kulturvolumen, Kontrolle 1470,66±390,71
  Zellvolumen (µm³): 1484,77±412,43 µm³
[2]; 2 x 10⁻⁴ mg HMT/ml Kulturvolumen, Kontrolle 1470,66±390,71
  Zellvolumen (µm³): 1365,68±371,21 µm³
[2]; 2 x 10⁻⁵ mg HMT/ml Kulturvolumen, Kontrolle 1470,66±390,71
  Zellvolumen (µm³): 1289,92±350,94 µm³
[2]; 2 x 10⁻⁶ mg HMT/ml Kulturvolumen, Kontrolle 1470,66±390,71
  Zellvolumen (µm³): 1295,17±379,65 µm³
[2]; 2 x 10⁻⁷ mg HMT/ml Kulturvolumen, Kontrolle 1470,66±390,71
  Zellvolumen (µm³): 1279,94±388,43 µm³
[2]; 2 x 10⁻⁸ mg HMT/ml Kulturvolumen, Kontrolle 1470,66±390,71
  Zellvolumen (µm³): 1291,81±410,11 µm³
[2]; 2 x 10⁻⁹ mg HMT/ml Kulturvolumen, Kontrolle 1470,66±390,71
  Zellvolumen (µm³): 1292,70±398,55 µm³
[2]; 5 x 10⁻² mg HMT/ml Kulturvolumen, Kontrolle 1470,66±390,71
  Zellvolumen (µm³): 1736,76±438,98 µm³
[2]; between 10⁻⁴ - 10⁻¹² mg/ml Kulturvolumen
  Zellvolumen: korrespondiert das Zellvolumen mit dem Zellvolumen der Kontrollen
[1]; 0,1 mg HMT/ml Kulturvolumen, kernfragmente
  Anzahl der Kerne mit reduzierter Nucleusgröße (%): 79,9 (kernfragmente) %
[1]; 0,02 mg HMT/ml Kulturvolumen, Kernfragmente
  Anzahl der Kerne mit reduzierter Nucleusgröße (%): 1,0 (Kernfragmente) %
[1]; 0,2 mg HMT/ml Kulturvolumen, Kernfragmente
  Anzahl der Kerne mit reduzierter Nucleusgröße (%): 81,3 (Kernfragmente) %
[1]; 0,05 mg HMT/ml Kulturvolumen, Kernfragmente
  Anzahl der Kerne mit reduzierter Nucleusgröße (%): 25,1 (Kernfragmente) %
[1]; 2 x 10⁻² mg HMT/ml Kulturvolumen
  Anzahl der Kerne mit reduzierter Nucleusgröße (%): 6,05+2,07%
[1]; 2 x 10⁻³ mg HMT/ml Kulturvolumen
  Anzahl der Kerne mit reduzierter Nucleusgröße (%): 19,62±3,89%
[1]; 2 x 10⁻¹² mg HMT/ml Kulturvolumen
  Anzahl der Kerne mit reduzierter Nucleusgröße (%): 25,77±4,29%
[1]; 2 x 10⁻¹¹ mg HMT/ml Kulturvolumen
  Anzahl der Kerne mit reduzierter Nucleusgröße (%): 27,17±4,13%
[1]; 2 x 10⁻⁴ mg HMT/ml Kulturvolumen
  Anzahl der Kerne mit reduzierter Nucleusgröße (%): 13,41±3,71%
[1]; 2 x 10⁻⁵ mg HMT/ml Kulturvolumen
  Anzahl der Kerne mit reduzierter Nucleusgröße (%): 11,14±3,60%
[1]; 2 x 10⁻⁶ mg HMT/ml Kulturvolumen
  Anzahl der Kerne mit reduzierter Nucleusgröße (%): 4,50±2,92%
[1]; 2 x 10⁻⁷ mg HMT/ml Kulturvolumen
  Anzahl der Kerne mit reduzierter Nucleusgröße (%): 1,11±0,58%
[1]; 2 x 10⁻⁸ mg HMT/ml Kulturvolumen
  Anzahl der Kerne mit reduzierter Nucleusgröße (%): 20,86±4,07%
[1]; 5 x 10⁻² mg HMT/ml Kulturvolumen
  Anzahl der Kerne mit reduzierter Nucleusgröße (%): 4,87±91,93%
[1]; range of normal cell volume, 10⁻⁴- 10⁻¹² mg HMT/ml Kulturvolumen
  Kerne größenreduziert im Vergleich zu den Kontrollen: 25%
[3]; Mus musculus, L5178Y, 24 h, 0,1 mg HMT/ml Kulturvolumen, 24 Std., Kontrolle = 100, read-out: Zellwachstum (%)
  activity at 100 µg/mL: 8%
[3]; Mus musculus, L5178Y, 24 h, 0,02 mg HMT/ml Kulturvolumen, 24 Std., Kontrolle = 100, read-out: Zellwachstum (%)
  activity at 20 µg/mL: 61%
[3]; Mus musculus, L5178Y, 24 h, 0,2 mg HMT/ml Kulturvolumen, 24 Std., Kontrolle = 100, read-out: Zellwachstum (%)
  activity at 200 µg/mL: 6%
[3]; Mus musculus, L5178Y, 24 h, 0,05 mg HMT/ml Kulturvolumen, 24 Std., Kontrolle = 100, read-out: Zellwachstum (%)
  activity at 50 µg/mL: 35%
[3]; from a concentration of 1 x 10⁻³ mg/ml HMT downwards
  Zellwachstum: nicht mehr statistisch signifikant beeinflußt
[4]; pH 5
  dissoziiert in Formaldehyd und Ammoniumionen: 20%
[4]; pH 6
  dissoziiert in Formaldehyd und Ammoniumionen: 6%
Reversen Transkriptase
  Aktivitäten der reversen Transkriptase im Zellkern: beeinträchtigt
DNA-Polymerasen
  Aktivitäten der DNA-Polymerasen im Zellkern: beeinträchtigt
